In assay [1] the target is T1, Hexokinase HKDC1 (Homo sapiens, UniProt Q2TB90).
T1 sequence (Q2TB90 whole entry): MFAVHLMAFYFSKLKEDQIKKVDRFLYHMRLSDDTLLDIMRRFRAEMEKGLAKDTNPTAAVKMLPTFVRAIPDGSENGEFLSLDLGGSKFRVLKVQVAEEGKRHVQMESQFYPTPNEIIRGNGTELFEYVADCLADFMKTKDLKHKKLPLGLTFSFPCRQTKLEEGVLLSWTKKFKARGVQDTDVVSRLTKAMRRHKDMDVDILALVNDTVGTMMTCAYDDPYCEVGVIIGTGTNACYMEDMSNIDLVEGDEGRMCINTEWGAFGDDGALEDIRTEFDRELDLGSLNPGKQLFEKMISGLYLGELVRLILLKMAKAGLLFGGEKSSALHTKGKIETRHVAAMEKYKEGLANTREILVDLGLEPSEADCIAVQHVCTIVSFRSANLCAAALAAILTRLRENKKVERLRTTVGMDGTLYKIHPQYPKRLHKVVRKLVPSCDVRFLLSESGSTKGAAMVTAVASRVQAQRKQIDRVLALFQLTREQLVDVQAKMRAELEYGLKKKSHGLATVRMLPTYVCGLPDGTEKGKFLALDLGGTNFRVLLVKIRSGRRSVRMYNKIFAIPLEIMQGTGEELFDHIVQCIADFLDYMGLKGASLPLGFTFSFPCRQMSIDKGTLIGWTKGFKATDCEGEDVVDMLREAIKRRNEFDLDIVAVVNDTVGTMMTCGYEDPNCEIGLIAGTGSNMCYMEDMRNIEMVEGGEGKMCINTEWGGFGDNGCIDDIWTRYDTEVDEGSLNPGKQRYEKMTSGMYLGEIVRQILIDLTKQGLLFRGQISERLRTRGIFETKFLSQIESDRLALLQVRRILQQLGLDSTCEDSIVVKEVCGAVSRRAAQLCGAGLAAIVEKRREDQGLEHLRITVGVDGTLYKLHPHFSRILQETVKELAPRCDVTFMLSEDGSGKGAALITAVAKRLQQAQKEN
Briefly: SAR analysis of small molecule inhibitors of hexokinase domain containing I (HKDC1). [Related pubchem assays (depositor defined):AID493160, AID493190]. In kind it is functional.

Assay [2] addresses T2, Hexokinase-1 (Homo sapiens, UniProt P19367).
T2 sequence (P19367 whole entry): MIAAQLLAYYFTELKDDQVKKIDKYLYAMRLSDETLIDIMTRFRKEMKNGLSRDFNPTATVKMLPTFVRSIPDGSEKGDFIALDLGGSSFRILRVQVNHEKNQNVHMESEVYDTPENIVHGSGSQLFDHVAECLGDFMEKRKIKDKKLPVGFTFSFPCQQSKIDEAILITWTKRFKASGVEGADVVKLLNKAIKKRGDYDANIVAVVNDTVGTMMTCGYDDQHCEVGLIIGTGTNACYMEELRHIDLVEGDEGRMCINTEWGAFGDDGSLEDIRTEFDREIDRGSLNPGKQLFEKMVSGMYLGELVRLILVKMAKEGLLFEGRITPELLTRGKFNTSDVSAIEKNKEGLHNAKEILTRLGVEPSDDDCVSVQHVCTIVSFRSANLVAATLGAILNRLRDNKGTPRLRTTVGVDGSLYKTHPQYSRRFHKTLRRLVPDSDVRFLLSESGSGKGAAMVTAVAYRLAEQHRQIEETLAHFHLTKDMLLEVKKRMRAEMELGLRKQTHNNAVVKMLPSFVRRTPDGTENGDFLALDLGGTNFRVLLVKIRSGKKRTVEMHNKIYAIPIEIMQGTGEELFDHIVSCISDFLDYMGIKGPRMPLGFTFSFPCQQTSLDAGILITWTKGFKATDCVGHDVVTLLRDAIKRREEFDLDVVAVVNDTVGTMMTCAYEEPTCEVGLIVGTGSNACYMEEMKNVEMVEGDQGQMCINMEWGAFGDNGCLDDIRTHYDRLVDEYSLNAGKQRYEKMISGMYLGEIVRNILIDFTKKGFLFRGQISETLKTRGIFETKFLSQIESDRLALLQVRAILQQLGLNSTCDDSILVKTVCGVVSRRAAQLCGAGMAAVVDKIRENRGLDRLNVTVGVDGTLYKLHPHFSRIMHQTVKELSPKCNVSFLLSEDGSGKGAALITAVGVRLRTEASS
Briefly: SAR analysis of small molecule inhibitors of hexokinase domain containing I (HKDC1) in the hexokinase 1 selectivity assay. [Related pubchem assays (depositor defined):AID493160, AID493190]. In kind it is functional.

Assay [3] can be described thus: growth suppression of PTEN-null colon cells, dose response, cell-based, HCT116 PTEN knockout (AID 1047).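 Also: HCT116 colon tumor cells with PTEN knocked out; cells exposed to compound for 60 hours before readout; potency for loss of cell viability measured by luminescence.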 It is filed as functional.
Assay [4] is described as follows: C. albicans growth with fluconazole, confirmation, fluorescence, retest (AID 2467). It is filed as functional, cell-based.
Assay [5] deals with Estrogen receptor beta (Homo sapiens, UniProt Q92731). As to the kind of experiment: ERβ–SRC-3 coactivator interaction inhibitors, confirmation, orthogonal assay, biochemical, ELISA, streptavidin-HRP readout (AID 1060).
Estrogen receptor beta, sequence (Q92731 whole entry): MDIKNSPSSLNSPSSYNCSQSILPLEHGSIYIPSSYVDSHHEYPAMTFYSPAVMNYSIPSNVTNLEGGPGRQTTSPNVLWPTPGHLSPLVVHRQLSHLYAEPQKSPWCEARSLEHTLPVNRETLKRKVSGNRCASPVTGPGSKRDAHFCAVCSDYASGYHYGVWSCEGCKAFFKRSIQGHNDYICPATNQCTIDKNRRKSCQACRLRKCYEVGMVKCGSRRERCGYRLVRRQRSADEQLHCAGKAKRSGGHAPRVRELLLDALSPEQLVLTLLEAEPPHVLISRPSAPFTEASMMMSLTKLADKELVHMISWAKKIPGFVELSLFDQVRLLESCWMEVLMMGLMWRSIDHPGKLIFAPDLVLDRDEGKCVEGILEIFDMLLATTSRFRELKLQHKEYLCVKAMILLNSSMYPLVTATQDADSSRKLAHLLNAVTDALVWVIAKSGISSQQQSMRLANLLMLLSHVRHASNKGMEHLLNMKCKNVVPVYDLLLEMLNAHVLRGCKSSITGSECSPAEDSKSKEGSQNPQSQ
The target of assay [6] is Nonstructural protein 1 (Influenza A virus, UniProt Q194T2). In kind it is functional, Influenza A virus (A/California/07/2009(H1N1)).
Nonstructural protein 1, sequence (Q194T2 whole entry): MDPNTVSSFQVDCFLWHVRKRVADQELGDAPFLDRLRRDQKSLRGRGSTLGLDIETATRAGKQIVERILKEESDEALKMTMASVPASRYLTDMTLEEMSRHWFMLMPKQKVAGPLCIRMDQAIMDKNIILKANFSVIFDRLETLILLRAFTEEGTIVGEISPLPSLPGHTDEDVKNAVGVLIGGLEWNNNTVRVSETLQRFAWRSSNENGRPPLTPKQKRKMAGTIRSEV
A short description of assay [7]: NIH-3T3 fibroblast cytotoxicity, dose response, cytotoxicity control, cell-based, fluorescence, Alamar Blue, secondary assay (AID 2327).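 Also: NIH-3T3 mouse fibroblasts cultured with fluconazole at 8 µg/mL.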 It is filed as functional.
For assay [8], the target named is Serine/threonine-protein phosphatase (Candida dubliniensis (strain CD36 / CBS 7987 / NCPF 3949 / NRRLY-17841) (Yeast), UniProt B9W6M3). Briefly: calcineurin pathway inhibitors in yeast reporter, dose response, S. cerevisiae, CDRE-lacZ, luminescence, secondary (AID 2388).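 Also: yeast reporter cells carrying a calcineurin-responsive lacZ construct stimulated with calcium chloride; luminescent beta-galactosidase reporter signal in whole cells rather than isolated phosphatase activity; potency for inhibition where a drop in reporter signal means calcineurin blockade.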 It is filed as functional, cell-based.
Serine/threonine-protein phosphatase, sequence (B9W6M3 whole entry): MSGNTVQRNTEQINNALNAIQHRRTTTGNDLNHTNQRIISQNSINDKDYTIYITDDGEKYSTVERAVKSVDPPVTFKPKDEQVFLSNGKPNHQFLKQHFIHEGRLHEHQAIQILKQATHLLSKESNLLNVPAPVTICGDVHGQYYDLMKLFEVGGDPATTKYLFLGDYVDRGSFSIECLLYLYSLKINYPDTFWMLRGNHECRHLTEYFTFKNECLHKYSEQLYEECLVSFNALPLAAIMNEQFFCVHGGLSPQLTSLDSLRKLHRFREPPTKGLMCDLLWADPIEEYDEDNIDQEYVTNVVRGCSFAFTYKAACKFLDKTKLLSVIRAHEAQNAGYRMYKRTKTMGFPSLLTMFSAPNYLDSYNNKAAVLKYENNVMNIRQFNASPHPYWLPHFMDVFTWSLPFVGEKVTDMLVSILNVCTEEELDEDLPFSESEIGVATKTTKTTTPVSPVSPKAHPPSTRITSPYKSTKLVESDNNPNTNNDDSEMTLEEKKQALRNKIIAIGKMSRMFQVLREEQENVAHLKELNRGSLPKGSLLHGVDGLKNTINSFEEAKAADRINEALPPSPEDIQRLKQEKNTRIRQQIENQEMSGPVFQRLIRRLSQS
The target of assay [9] is T3, Replicative DNA helicase DnaB (Mycobacterium tuberculosis, UniProt P9WMR3).
T3 sequence (P9WMR3 whole entry): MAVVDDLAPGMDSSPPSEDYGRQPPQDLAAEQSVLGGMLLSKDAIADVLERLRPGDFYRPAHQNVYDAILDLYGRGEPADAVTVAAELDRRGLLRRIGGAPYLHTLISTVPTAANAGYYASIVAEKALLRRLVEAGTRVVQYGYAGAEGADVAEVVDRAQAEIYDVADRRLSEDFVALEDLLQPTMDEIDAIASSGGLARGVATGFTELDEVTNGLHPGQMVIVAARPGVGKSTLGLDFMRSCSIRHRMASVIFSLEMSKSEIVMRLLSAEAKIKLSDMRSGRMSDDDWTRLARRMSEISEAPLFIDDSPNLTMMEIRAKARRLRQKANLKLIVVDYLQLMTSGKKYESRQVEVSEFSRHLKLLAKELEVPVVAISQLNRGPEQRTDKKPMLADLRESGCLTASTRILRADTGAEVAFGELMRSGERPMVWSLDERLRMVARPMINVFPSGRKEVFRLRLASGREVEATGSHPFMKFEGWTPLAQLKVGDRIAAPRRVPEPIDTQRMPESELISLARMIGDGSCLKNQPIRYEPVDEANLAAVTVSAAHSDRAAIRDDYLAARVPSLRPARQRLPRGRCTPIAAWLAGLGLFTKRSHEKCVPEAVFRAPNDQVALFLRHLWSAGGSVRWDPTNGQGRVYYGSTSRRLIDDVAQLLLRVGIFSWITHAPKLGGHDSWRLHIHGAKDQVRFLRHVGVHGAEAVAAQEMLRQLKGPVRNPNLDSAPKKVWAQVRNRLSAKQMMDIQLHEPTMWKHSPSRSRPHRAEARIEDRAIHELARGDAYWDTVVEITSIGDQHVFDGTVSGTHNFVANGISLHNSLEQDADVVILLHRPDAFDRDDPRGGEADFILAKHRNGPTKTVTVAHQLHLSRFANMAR
As to the kind of experiment: DnaB intein splicing inhibitors, dose response, biochemical, cell-free fluorescence (AID 449749). In kind it is functional.

Assay [10] in a line: cytotoxicity toward NIH3T3 fibroblasts, dose response, counter-screen, cell-based, ATP luminescence, mouse fibroblasts (AID 2010).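 Also: cells exposed to compound for about 90 hours before reading.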 It is filed as functional.
The target of assay [11] is T4, Heat shock factor protein 1 (Mus musculus, UniProt P38532).
T4 sequence (P38532 whole entry): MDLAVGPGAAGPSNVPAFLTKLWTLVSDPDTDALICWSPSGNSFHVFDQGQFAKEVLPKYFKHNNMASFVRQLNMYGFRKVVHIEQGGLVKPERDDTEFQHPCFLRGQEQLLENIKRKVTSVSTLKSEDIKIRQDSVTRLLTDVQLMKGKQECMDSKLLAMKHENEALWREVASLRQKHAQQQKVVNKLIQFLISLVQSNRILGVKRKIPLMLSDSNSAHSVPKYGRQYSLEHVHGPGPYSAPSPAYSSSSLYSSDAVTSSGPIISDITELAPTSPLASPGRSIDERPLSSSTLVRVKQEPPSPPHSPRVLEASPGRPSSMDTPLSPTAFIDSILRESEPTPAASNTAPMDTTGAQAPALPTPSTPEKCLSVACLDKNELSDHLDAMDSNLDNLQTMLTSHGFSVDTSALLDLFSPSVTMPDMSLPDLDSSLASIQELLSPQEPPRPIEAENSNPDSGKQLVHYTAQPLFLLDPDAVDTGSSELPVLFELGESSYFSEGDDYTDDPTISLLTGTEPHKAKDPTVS
As to the kind of experiment: inhibition of MG132-induced HSE-luciferase signal, confirmation, cell-based, NIH3T3, luminescence, dose retest (AID 2382).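 Also: NIH3T3 fibroblasts with HSF1-driven luciferase reporter stressed by proteasome inhibitor MG132; luminescence from HSF1-driven luciferase expression after 8 hours of MG132 stress.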 In kind it is functional.

For assay [12], the target named is ATP-dependent molecular chaperone HSP82 (Candida albicans (strain WO-1) (Yeast), UniProt C4YTQ8). As to the kind of experiment: loss of DOC-induced GRE-beta-galactosidase reporter signal, dose response, Hsp90 inhibitor project, S. cerevisiae, luminescence (AID 2400).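 Also: beta-galactosidase luminescence from glucocorticoid response element reporter as proxy for Hsp90 function; inhibitor potency where signal loss means Hsp90 inhibition.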 In kind it is functional, cell-based.
ATP-dependent molecular chaperone HSP82, sequence (C4YTQ8 whole entry): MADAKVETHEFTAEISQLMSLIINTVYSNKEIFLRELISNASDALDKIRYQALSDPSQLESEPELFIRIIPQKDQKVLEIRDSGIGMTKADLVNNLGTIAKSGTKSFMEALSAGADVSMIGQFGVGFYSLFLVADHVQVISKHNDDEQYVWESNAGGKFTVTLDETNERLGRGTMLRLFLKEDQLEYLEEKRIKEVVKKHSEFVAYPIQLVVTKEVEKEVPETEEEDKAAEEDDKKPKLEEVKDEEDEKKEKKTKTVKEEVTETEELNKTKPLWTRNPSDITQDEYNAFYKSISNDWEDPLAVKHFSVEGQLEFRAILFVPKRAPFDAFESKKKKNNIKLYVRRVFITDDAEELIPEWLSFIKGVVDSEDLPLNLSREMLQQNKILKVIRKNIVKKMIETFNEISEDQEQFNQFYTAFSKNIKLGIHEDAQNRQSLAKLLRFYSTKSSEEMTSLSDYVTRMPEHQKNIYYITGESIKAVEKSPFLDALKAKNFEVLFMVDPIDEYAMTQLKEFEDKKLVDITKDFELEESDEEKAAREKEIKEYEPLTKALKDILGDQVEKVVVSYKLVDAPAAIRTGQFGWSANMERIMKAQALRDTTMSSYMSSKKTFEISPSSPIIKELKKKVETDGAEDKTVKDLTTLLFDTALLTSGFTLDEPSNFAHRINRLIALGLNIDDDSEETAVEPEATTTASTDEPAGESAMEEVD
Assay [13] is described as follows: inhibitors of intracellular T. cruzi replication, confirmation, NIH3T3 host cells, beta-gal luminescence (AID 2044).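 Also: intracellular parasites grown in NIH/3T3 mouse fibroblasts as host cells; luminescent beta-galactosidase reporter signal from transgenic T. cruzi replicating inside host cells; inhibitors lower the luminescence signal.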 In kind it is functional, cell-based.
A short description of assay [14]: growth suppression of beta-catenin-knockout colon cells, dose response, cell-based, HCT116, human colon tumor (AID 1045).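 Also: HCT116 colon tumor cells with beta catenin knocked out; cells exposed to compound for 60 hours.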 In kind it is functional.
Assay [15] has as its target T5, Protein RecA (Mycobacterium tuberculosis, UniProt P9WHJ3).
T5 sequence (P9WHJ3 whole entry): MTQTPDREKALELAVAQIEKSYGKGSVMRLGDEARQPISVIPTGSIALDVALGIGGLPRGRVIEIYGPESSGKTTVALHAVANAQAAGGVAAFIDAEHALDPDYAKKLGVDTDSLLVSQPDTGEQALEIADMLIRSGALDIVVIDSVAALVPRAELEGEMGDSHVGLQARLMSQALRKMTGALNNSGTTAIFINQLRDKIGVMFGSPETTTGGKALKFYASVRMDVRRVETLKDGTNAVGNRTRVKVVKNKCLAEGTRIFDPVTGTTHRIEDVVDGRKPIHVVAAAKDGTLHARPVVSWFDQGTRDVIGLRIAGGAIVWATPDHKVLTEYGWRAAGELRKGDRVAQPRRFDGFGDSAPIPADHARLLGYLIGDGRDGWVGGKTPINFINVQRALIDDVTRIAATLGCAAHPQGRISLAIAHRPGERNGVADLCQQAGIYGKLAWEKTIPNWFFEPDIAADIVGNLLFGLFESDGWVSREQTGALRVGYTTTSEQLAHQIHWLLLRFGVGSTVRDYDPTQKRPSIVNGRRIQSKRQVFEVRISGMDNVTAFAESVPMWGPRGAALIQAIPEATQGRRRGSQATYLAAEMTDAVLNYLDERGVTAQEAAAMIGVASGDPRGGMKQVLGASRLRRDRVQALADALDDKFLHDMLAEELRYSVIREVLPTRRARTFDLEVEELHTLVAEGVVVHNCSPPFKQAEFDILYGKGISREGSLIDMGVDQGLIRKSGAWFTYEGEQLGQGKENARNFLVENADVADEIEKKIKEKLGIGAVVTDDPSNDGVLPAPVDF
As to the kind of experiment: Fluorescence Cell-Free Homogeneous Dose Retest to Identify Inhibitors of RecA-Intein Splicing Activity. [Related pubchem assays (depositor defined):AID2097, AID2223, AID489010, AID492950]. In kind it is functional.

Activity calls are given as the source filed them.

Take `COc1cccc(/C=C/c2nc3ccccc3c(=O)n2Cc2ccccc2)c1`: the IC50 in [1] and in assay [2] was > 80 µM (inactive) each time.
Take `COc1cc2c(cc1OC)-c1cc(N3CCc4ccccc4C3)nc(=O)n1CC2`: the IC50 in assay [1] is 65.7 µM (inactive); in assay [2] it was 69 µM (inactive).
`CCN1CCN(C(c2cccnc2)c2cc(Cl)c3cccnc3c2O)CC1` (configuration not stated): the EC50 is 12.7 µM (active) in assay [3]; 916 nM (active) in assay [4]; > 150 µM (inactive) in assay [7]; > 180 µM (inactive) in [8]; > 60 µM (not active) in assay [10]; > 195 µM (not active) in [11]. Besides, the EC50 in assay [12] was > 150 µM (inactive); in assay [13], 2.13 µM (active); in [14] it was 15.1 µM (active); in assay [15], 1.8 µM (active). Also, the IC50 in assay [5] is 2.39 µM (not active); in [6], 17.8 µM (active). In addition, the AC50 in assay [9] was > 380 µM (inactive).

The values are drawn from ChEMBL document CHEMBL1201862, “PubChem BioAssay data set” (2004).
